The record followed here is ChEMBL document CHEMBL3632530, “Synthesis and structure-activity relationship study of benzofuran-based chalconoids bearing benzylpyridinium moiety as potent acetylcholinesterase inhibitors” (Eur J Med Chem, 2015).

The assay deals with Acetylcholinesterase (Torpedo californica, UniProt P04058). Put plainly: Inhibition of Torpedo californica AChE (type VI-S) using acetylthiocholine iodide as substrate assessed as 5-thio-2-nitrobenzoate anion formation preincubated for 15 mins followed by substrate addition. More on the design: species or system Tetronarce californica.
Acetylcholinesterase, sequence (P04058 whole entry): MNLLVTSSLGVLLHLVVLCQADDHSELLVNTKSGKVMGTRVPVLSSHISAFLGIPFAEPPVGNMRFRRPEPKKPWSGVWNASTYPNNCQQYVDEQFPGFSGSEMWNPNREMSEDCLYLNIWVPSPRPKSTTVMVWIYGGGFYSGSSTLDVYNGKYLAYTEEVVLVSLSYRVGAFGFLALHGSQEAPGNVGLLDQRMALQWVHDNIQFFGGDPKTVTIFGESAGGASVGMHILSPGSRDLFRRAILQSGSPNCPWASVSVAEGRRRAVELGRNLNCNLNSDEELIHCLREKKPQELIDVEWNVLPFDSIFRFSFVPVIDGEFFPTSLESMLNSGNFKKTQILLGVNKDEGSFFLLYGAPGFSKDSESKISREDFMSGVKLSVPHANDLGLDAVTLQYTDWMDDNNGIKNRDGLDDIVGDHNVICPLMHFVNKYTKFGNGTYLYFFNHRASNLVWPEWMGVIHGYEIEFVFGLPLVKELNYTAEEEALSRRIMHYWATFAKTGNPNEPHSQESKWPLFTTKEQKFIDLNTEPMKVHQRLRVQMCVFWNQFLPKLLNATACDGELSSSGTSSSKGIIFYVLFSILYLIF

One may read the IC50 as the point on the concentration scale where inhibition reaches its midpoint.

In the case of `O=C(/C=C/c1cc[n+](Cc2cccc(Cl)c2Cl)cc1)c1cc2ccccc2o1`, the concentration for half-maximal inhibition (IC50) amounted to 3120 nM. On to `O=C(/C=C/c1ccc[n+](Cc2cccc(Cl)c2Cl)c1)c1cc2cc(Br)ccc2o1`, for which the IC50 amounted to 2850 nM. As for `O=C(/C=C/c1cc[n+](Cc2ccccc2)cc1)c1cc2ccccc2o1`, the IC50 came out at 64 nM.

For the compound `COc1cccc2cc(C(=O)/C=C/c3ccc[n+](Cc4ccccc4)c3)oc12`, the IC50 was determined as 3890 nM. `COc1cccc2cc(C(=O)/C=C/c3ccc[n+](Cc4cccc(Cl)c4Cl)c3)oc12`: the IC50 is 985 nM. Under `O=C(/C=C/c1cc[n+](Cc2ccccc2)cc1)c1cc2cc(Br)ccc2o1` stands 5960 nM.

Consider `O=C(/C=C/c1ccc[n+](Cc2ccc(Cl)c(Cl)c2)c1)c1cc2cc(Br)ccc2o1`, for which the IC50 is 786 nM.

As for `O=C(/C=C/c1ccc[n+](Cc2ccc(Br)cc2)c1)c1cc2cc(Br)ccc2o1`, the IC50 is 31000 nM. For the compound `O=C(/C=C/c1ccc[n+](Cc2ccccc2)c1)c1cc2ccccc2o1`, the IC50 worked out at 58 nM.

Take `COc1cccc2cc(C(=O)/C=C/c3ccc[n+](Cc4ccccc4Br)c3)oc12`: the IC50 came out at 27 nM. Consider `COc1cccc2cc(C(=O)/C=C/c3ccc[n+](Cc4ccc(Cl)cc4)c3)oc12`, for which the half-maximal inhibitory concentration (IC50) came to 11200 nM. In the case of `O=C(/C=C/c1ccc[n+](Cc2ccccc2)c1)c1cc2cc(Br)ccc2o1` it was 5410 nM.

Turning to `O=C(/C=C/c1cc[n+](Cc2ccccc2Br)cc1)c1cc2ccccc2o1`, the IC50 amounted to 41 nM. In the case of `O=C(/C=C/c1ccc[n+](Cc2ccc([N+](=O)[O-])cc2)c1)c1cc2ccccc2o1` it was 29200 nM. Regarding `O=C(/C=C/c1ccc[n+](Cc2ccccc2Br)c1)c1cc2cc(Br)ccc2o1`, the IC50 came out at 2150 nM. Take `COc1cccc2cc(C(=O)/C=C/c3ccc[n+](Cc4ccc(Br)cc4)c3)oc12`: the IC50 came out at 10700 nM. Under `O=C(/C=C/c1ccc[n+](Cc2ccc(Br)cc2)c1)c1cc2ccccc2o1` stands 357 nM; under `O=C(/C=C/c1ccc[n+](Cc2ccccc2Br)c1)c1cc2ccccc2o1`, 35 nM.
